# Assay results from paper PMC12352620, “Fragment-based discovery of dual ligand pharmacophores for lipid-sensing transcription factors for designed polypharmacology” (RSC Medicinal Chemistry, 2025).
# What was measured:
# Type in all cases: cell-based
# [1] = test system: CAR; assay: Gal4-hybrid reporter gene assay CAR (selectivity); conditions: mean, n ≥ 3, Fig. 8
# Experimental: (§1) NR modulation was determined as described previously[45] in Gal4 hybrid reporter gene assays in HEK293T cells (German Collection of Microorganisms and Cell Culture GmbH, DSMZ) using pFR-Luc (Stratagene, La Jolla, CA, USA; reporter), pRL-SV40 (Promega, Madison, WI, USA; internal control) and the hybrid receptor clones pFA-CMV-hTHRα-LBD,[46] pFA-CMV-hPPARγ-LBD,[47] pFA-CMV-hFXR-LBD,[48] and pFA-CMV-hRXRα-LBD,[49] coding for the hinge region and ligand binding domain of the canonical isoform of the respective NR. Cells were cultured in Dulbecco's modified Eagle's medium (DMEM), high glucose supplemented with 10% fetal calf serum (FCS), sodium pyruvate (1 mM), penicillin (100 U mL^−1), and streptomycin (100 μg mL^−1) at 37 °C and 5% CO2 and seeded in 96-well plates (3 × 10^4 cells per well). After 24 h, medium was changed to Opti-MEM without supplements and cells were transiently transfected using Lipofectamine LTX reagent (Invitrogen, Carlsbad, CA, USA) according to the manufacturer's protocol. Five hours after transfection, cells were incubated with the test compounds in Opti-MEM supplemented with penicillin (100 U mL^−1), streptomycin (100 μg mL^−1) and 0.1% DMSO for 16 h before luciferase activity was measured using the Dual-Glo Luciferase Assay System (Promega) according to the manufacturer's protocol on a Tecan Spark luminometer (Tecan Deutschland GmbH, Crailsheim, Germany). Firefly luminescence was divided by Renilla luminescence and multiplied by 1000 resulting in relative light units (RLU) to normalize for transfection efficiency and cell growth. Fold activation was obtained by dividing the mean RLU of test compound by the mean RLU of the untreated control. All samples were tested in at least three biologically independent experiments in duplicates. For dose–response curve fitting and calculation of EC50 values, the equation “[agonist] vs. response − variable slope (four parameters)” was used in GraphPad Prism (version 7.00, GraphPad Software, La Jolla, CA, USA). For selectivity profiling, the hybrid reporter gene assay was performed with Gal4 fusion receptor plasmids for RARα, PPARα, PPARδ, VDR, CAR and LXRα. The following reference agonists were used: triiodothyronine (1 μM, THR), all-trans retinoic acid (1 μM, RAR), GW7647 (1 μM, PPARα), pioglitazone (1 μM, PPARγ), L165041 (1 μM, PPARδ), calcitriol (1 μM, VDR), CITCO (1 μM, CAR), T0901317 (1 μM, LXR), GW4064 (1 μM, FXR), bexarotene (1 μM, RXR).
# [2] = target: T1, PPARα (Homo sapiens, UniProt Q07869); assay: Gal4-hybrid reporter gene assay PPARα (selectivity); conditions: mean, n ≥ 3, Fig. 8
# T1 construct: expressed in transfected cells; host or cells: HEK293T
# T1 sequence (Q07869 167-468 limits assumed): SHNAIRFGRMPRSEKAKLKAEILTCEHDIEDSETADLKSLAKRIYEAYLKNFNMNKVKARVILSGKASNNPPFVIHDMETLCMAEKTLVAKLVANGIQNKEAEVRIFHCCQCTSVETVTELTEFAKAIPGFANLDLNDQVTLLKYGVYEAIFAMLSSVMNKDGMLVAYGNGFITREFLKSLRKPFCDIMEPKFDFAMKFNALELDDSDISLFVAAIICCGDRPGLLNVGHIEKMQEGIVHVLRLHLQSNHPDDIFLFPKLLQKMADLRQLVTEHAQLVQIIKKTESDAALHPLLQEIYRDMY
# Experimental: as §1
# [3] = target: T2, VDR (Homo sapiens, UniProt P11473); assay: Gal4-hybrid reporter gene assay VDR (selectivity); conditions: mean, n ≥ 3, Fig. 8
# T2 construct: expressed in transfected cells; host or cells: HEK293T
# T2 sequence (P11473 97-427 limits assumed): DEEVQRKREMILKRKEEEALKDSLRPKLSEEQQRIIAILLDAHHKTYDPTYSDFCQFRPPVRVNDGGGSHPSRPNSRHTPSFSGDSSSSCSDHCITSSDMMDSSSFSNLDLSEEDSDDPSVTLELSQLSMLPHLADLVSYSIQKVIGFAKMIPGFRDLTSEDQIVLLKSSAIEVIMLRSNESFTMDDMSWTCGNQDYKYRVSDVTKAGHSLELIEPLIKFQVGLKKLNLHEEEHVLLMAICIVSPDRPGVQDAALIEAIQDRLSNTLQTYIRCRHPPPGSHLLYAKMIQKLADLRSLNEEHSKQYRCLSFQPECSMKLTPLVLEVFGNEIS
# Experimental: as §1
# [4] = target: T3, PPARδ (Homo sapiens, UniProt Q03181); assay: Gal4-hybrid reporter gene assay PPARδ (selectivity); conditions: mean, n ≥ 3, Fig. 8
# T3 construct: expressed in transfected cells; host or cells: HEK293T
# T3 sequence (Q03181 138-441 limits assumed): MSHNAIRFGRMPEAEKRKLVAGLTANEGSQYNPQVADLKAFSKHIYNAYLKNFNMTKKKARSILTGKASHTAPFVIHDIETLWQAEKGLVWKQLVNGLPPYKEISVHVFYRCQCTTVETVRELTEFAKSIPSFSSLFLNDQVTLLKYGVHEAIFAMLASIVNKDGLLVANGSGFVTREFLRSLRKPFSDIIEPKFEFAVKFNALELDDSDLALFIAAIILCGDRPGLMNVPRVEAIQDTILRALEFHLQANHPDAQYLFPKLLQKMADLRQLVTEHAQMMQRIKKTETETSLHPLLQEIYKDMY
# Experimental: as §1
# [5] = target: T4, LXRα (Homo sapiens, UniProt Q13133); assay: Gal4-hybrid reporter gene assay LXRα (selectivity); conditions: mean, n ≥ 3, Fig. 8
# T4 construct: expressed in transfected cells; host or cells: HEK293T
# T4 sequence (Q13133 171-447 limits assumed): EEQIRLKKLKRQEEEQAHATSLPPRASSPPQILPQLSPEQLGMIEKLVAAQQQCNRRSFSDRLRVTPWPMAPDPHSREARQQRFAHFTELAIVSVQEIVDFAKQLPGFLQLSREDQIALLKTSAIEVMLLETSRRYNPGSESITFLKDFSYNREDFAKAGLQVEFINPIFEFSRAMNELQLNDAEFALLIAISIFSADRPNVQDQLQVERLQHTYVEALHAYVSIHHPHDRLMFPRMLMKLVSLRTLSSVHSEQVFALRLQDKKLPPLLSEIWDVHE
# Experimental: as §1
# [6] = target: T5, RXRα (Homo sapiens, UniProt P19793); assay: Gal4-hybrid reporter gene assay RXRα; conditions: n ≥ 3; for fold act. RXRα: mean, Fig. 8; for EC50 / EC50 RXRα: HEK293T, Gal4-hybrid reporter, Inactive = tested 1–300 μM; for EC50 / max. fold activation RXRα / EC50 RXRα: mean ± S.E.M.; for max. fold activation RXRα: maximum reporter activation vs DMSO (0.1%) treated cells
# T5 construct: expressed in transfected cells; host or cells: HEK293T
# T5 sequence (P19793 227-458 limits assumed): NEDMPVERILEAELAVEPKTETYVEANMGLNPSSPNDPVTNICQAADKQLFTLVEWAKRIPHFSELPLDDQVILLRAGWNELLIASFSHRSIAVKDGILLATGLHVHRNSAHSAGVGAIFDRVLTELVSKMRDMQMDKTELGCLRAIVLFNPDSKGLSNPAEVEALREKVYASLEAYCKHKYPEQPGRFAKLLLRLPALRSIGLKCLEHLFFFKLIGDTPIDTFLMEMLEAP
# Experimental: as §1
EC50 [6] [µM],max. fold activation RXRα [6],fold act. PPARα ([2]; 30 μM) [fold],fold act. VDR ([3]; 30 μM) [fold],fold act. PPARδ ([4]; 30 μM) [fold],fold act. LXR ([5]; 30 μM) [fold],fold act. RXRα ([6]; 30 μM) [fold],EC50 RXRα [6],Structure (SMILES),fold act. CAR ([1]; 30 μM) [fold],further results
0.9 ± 0.2,(4.3 ± 0.5-fold),–,–,–,–,–,–,"CCOc1ccc(-c2cc(C(=O)O)co2)cc1 [3.1, 5-(4-Ethoxyphenyl)furan-3-carboxylic acid]",–,fold act. CAR ([1]; 10 μM): 3 fold; fold act. PPARα ([2]; 10 μM): 5 fold; fold act. VDR ([3]; 10 μM): 3 fold; fold act. PPARδ ([4]; 10 μM): 2 fold; fold act. LXR ([5]; 10 μM): 3 fold; fold act. RXRα ([6]; 10 μM): 4 fold
–,–,1,1,1,1,1,Inactive,"O=C(O)/C=C/C(=O)c1ccc(Cl)cc1Cl [4.6, (E)-4-Oxo-4-(2,4-dichlorophenyl)but-2-enoic acid]",1,–
–,–,6,2,3,1,1,Inactive,"O=C(O)/C=C/C(=O)c1ccc(-c2ccccc2)cc1 [4.7, (E)-4-([1,1′-Biphenyl]-4-yl)-4-oxobut-2-enoic acid]",2,–
26 ± 3,(4.5 ± 0.5-fold),–,–,–,–,–,–,"O=C(O)/C=C/C(=O)c1ccc2ccccc2c1 [4.8, (E)-4-Oxo-4-(naphthalen-2-yl)but-2-enoic acid]",–,fold act. CAR ([1]; 40 μM): 3 fold; fold act. PPARα ([2]; 40 μM): 7 fold; fold act. VDR ([3]; 40 μM): 3 fold; fold act. PPARδ ([4]; 40 μM): 3 fold; fold act. LXR ([5]; 40 μM): 3 fold; fold act. RXRα ([6]; 40 μM): 5 fold
